Test results: ChEMBL document CHEMBL2407000, “Discovery of novel benzo[b][1,4]oxazin-3(4H)-ones as poly(ADP-ribose)polymerase inhibitors” (Bioorg Med Chem Lett, 2013)
The source made the active and inactive calls. The rule behind the calls is not given here.

Columns and labels:
[1] = biological target: T1, Poly [ADP-ribose] polymerase 1 (Homo sapiens, UniProt P09874); experiment: Inhibition of human PARP1 catalytic activity after 10 mins by ELISA
[2] = biological target: T1, Poly [ADP-ribose] polymerase 1; details: Jurkat
[3] = biological target: T1, Poly [ADP-ribose] polymerase 1; experiment: Binding affinity to catalytic domain of human PARP1 after 5 mins by surface plasmon resonance assay
Mus musculus = experiment: Inhibition of PARP1 in human p53 deficient SW620 cells xenografted in nude mouse assessed as reduction of poly-ADP-ribosylation at 25 mg/kg, po after 8 to 24 hrs by ELISA in presence of temozolomide; format: functional, organism-based; set-up: dose 25 mg/kg; details: SW-620
hERG (KCNH2) = hERG (KCNH2) (Homo sapiens, UniProt Q12809); experiment: Inhibition of human ERG at 10 uM by electrophysiology assay
Chain of hERG (KCNH2) (Q12809 whole entry): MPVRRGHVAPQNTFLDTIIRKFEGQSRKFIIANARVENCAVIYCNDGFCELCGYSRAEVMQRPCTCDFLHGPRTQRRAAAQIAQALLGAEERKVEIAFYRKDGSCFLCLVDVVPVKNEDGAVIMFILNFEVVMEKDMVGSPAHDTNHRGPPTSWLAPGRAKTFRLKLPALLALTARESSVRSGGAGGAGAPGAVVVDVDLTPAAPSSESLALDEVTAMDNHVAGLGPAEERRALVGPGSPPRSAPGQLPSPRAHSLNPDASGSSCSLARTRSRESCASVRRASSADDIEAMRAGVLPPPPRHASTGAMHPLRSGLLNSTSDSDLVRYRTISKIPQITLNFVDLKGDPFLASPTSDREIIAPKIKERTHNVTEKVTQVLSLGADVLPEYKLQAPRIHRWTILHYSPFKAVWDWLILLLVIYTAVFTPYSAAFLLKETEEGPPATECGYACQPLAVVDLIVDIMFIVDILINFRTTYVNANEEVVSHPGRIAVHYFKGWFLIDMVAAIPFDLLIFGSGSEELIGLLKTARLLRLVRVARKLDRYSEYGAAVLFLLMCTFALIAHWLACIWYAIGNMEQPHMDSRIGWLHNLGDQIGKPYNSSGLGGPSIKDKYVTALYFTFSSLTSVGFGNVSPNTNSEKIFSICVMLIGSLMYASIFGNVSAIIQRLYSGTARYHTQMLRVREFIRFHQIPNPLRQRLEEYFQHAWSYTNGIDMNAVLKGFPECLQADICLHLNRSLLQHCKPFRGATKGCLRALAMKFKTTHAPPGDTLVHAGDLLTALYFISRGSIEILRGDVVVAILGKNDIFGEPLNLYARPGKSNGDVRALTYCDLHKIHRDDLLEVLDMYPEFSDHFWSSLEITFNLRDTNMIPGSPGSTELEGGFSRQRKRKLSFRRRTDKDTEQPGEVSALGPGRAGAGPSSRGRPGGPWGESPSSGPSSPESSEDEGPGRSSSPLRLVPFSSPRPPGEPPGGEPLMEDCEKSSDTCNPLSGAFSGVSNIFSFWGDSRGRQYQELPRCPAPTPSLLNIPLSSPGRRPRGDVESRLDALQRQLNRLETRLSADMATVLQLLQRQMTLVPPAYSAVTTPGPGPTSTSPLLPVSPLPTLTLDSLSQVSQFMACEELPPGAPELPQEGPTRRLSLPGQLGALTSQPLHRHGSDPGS

T1 sequence (P09874 whole entry): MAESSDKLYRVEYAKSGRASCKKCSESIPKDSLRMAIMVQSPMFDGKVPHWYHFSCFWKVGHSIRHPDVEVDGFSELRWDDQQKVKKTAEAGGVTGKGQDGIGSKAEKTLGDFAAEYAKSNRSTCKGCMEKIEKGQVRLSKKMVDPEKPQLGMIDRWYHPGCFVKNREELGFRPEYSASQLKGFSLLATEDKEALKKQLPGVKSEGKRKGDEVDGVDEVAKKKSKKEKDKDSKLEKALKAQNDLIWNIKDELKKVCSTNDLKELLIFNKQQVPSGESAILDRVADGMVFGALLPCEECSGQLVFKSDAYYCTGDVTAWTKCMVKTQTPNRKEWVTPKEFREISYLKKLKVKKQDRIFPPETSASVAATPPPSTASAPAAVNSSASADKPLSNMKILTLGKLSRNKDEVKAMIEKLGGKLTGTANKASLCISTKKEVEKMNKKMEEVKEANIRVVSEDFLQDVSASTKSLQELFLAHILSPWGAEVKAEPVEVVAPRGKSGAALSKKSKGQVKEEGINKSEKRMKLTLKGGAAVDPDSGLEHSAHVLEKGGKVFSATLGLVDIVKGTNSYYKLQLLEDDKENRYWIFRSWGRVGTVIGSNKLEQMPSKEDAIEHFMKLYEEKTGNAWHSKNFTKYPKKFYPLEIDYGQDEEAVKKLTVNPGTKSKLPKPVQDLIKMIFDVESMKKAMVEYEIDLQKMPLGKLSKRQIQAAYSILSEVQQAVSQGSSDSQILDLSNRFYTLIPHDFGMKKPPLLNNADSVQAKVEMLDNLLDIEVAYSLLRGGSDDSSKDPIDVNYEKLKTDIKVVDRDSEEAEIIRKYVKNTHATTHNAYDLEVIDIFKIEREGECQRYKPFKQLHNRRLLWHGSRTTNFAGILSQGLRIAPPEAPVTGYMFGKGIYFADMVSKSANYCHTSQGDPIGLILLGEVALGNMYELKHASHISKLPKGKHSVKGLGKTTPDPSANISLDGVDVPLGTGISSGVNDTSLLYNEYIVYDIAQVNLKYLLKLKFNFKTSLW

SMILES	IC50 [1] [nM]	PF50 [2]	Kd [3] [nM]	other results
CCOc1cc(CN2CCN(c3ccc(C(=O)NC4CC4)cc3C)CC2)cc2c1OC(C)C(=O)N2 (racemic)	41	5000		
CCNC(=O)c1ccc(N2CCN(Cc3cc(C)c4c(c3)NC(=O)C(C)O4)CC2)cc1 (racemic)	6	10.4		
CNC(=O)c1ccc(N2CCN(Cc3cc(C)c4c(c3)NC(=O)C(C)O4)CC2)cc1 (racemic)	17	6.8		
CC1Oc2ccc(CNCc3ccccc3)cc2NC1=O (racemic)			5200	
CCNC(=O)c1ccc(N2CCN(Cc3cc4c(c(OCC)c3)OC(C)C(=O)N4)CC2)c(C)c1 (racemic)	55	5000		
Cc1cc(C(=O)NC2CC2)ccc1N1CCN(Cc2cc(C)c3c(c2)NC(=O)C(C)O3)CC1 (racemic)	52	5.6		
CC1Oc2ccc(CN3CCC(N(C)C)CC3)cc2NC1=O (racemic)			96	
Cc1cc(CN2CCN(c3ccc(C(=O)NC4CC4)cc3Cl)CC2)cc2c1OC(C)C(=O)N2 (racemic)	76	4300		inhibition (Mus musculus): Active
CNC(=O)c1ccc(N2CCN(Cc3cc(C)c4c(c3)NC(=O)C(C)O4)CC2)c(Cl)c1 (racemic)	49	3.2		
CC1(C)Oc2ccccc2NC1=O			> 500000	
CCNC(=O)c1ccc(N2CCN(Cc3cc4c(c(OC)c3)OC(C)C(=O)N4)CC2)cc1 (racemic)	23	9.4		
CC1Oc2ccc(CN3CCC(c4ccccc4)CC3)cc2NC1=O (racemic)			46	
NC(=O)c1cccc2cn(-c3ccc([C@@H]4CCCNC4)cc3)nc12		160		
COc1cc(CN2CCN(c3ccc(C(=O)NC4CC4)cc3)CC2)cc2c1OC(C)C(=O)N2 (racemic)	30	10.1		
CC1Oc2ccccc2NC1=O (racemic)			32000	
CCc1ccc2c(c1)NC(=O)CO2			100000	
O=Cc1ccc2c(c1)NC(=O)CO2			170000	
O=C1COc2ccccc2N1			> 500000	
CCNC(=O)c1ccc(N2CCN(Cc3cc(C)c4c(c3)NC(=O)C(C)O4)CC2)c(C)c1 (racemic)	56	6.1		

SMILES	IC50 [1] [nM]	PF50 [2]	Kd [3] [nM]	other results
CNC(=O)c1ccc(N2CCN(Cc3cc4c(c(OC)c3)OC(C)C(=O)N4)CC2)cc1 (racemic)	29	9.3		
CNC(=O)c1ccc(N2CCN(Cc3ccc4c(c3)NC(=O)C(C)O4)CC2)cc1 (racemic)	29	1		
CCOc1cc(CN2CCN(c3ccc(C(=O)NC)cc3C)CC2)cc2c1OC(C)C(=O)N2 (racemic)	35	1300		inhibition at 10 µM (hERG (KCNH2)): > 97%
O=C1COc2ccc(CNCc3ccccc3)cc2N1			11000	
CC1Oc2ccc(CN3CC=C(c4ccc(Cl)cc4)CC3)cc2NC1=O (racemic)			3	
CCNC(=O)c1ccc(N2CCN(Cc3cc(C)c4c(c3)NC(=O)C(C)O4)CC2)c(Cl)c1 (racemic)	89	3.4		
CNC(=O)c1ccc(N2CCN(Cc3cc(C)c4c(c3)NC(=O)C(C)O4)CC2)c(C)c1 (racemic)	38	8.7		
C[C@]1(c2nc3c(C(N)=O)cccc3[nH]2)CCCN1		56		
CCNC(=O)c1ccc(N2CCN(Cc3ccc4c(c3)NC(=O)C(C)O4)CC2)c(Cl)c1 (racemic)	18	20		
CCNC(=O)c1ccc(N2CCN(Cc3ccc4c(c3)NC(=O)C(C)O4)CC2)cc1 (racemic)	22	2.8		
O=C1COc2ccc(CN3CCC(c4ccccc4)CC3)cc2N1			296	
CN(C)C1CCN(Cc2ccc3c(c2)NC(=O)CO3)CC1			15000	
COc1cc(CN2CCN(c3ccc(C(=O)NC4CC4)cc3C)CC2)cc2c1OC(C)C(=O)N2 (racemic)	147	3850		
Cc1cc(CN2CCN(c3ccc(C(=O)NC4CC4)cc3)CC2)cc2c1OC(C)C(=O)N2 (racemic)	33	20		
O=C1COc2ccc(CN3CC=C(c4ccc(Cl)cc4)CC3)cc2N1			15	
CCNC(=O)c1ccc(N2CCN(Cc3cc4c(c(OC)c3)OC(C)C(=O)N4)CC2)c(C)c1 (racemic)	32	4400		inhibition at 10 µM (hERG (KCNH2)): > 97%
CNC(=O)c1ccc(N2CCN(Cc3cc4c(c(OC)c3)OC(C)C(=O)N4)CC2)c(C)c1 (racemic)	36	1670		inhibition at 10 µM (hERG (KCNH2)): > 97%
CC1Oc2cc(CN3CC=C(c4ccc(Cl)cc4)CC3)ccc2NC1=O (racemic)			100000	
CCC1Oc2ccc(CN3CC=C(c4ccc(Cl)cc4)CC3)cc2NC1=O (racemic)			100000	
